Bounds are passed on as bounds.

T1 sequence (Q9NZQ7 19-238 limits assumed): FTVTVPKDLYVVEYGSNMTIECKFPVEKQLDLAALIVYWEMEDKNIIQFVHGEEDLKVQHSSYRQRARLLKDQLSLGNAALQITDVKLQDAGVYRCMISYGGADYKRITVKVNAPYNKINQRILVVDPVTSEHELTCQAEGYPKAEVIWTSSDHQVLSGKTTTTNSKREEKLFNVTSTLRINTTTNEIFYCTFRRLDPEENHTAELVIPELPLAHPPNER

This test concerns the target T1, PD-1/PD-L1 (Homo sapiens, UniProt Q9NZQ7).
T1 construct: purchased CisBio
Briefly: PD1-PDL1 HTRF assay. The following applies: PD-1/PD-L1 homogenous time-resolved fluorescence (HTRF) binding assay; Tag1-PDL1 5 nM, Tag2-PD1 50 nM. The source says:
The CisBio HTRF assay kit, purchased from CisBio only, was employed to determine the IC50 values of compounds. The PD1-PDL1 HTRF assay measures the interactions between the two proteins, PD1 and PDL1. The interaction is detected by using anti-Tag1 labeled with Europium (HTRF donor) which binds to PDL1 and anti-Tag2 labeled with XL665 (HTRF acceptor) which binds to PD1. When the two antibodies are in proximity, the excitation of the donor fluorophore results in FRET emission from the acceptor fluorophore. The presence of inhibitors for such an interaction result in reduction of HTRF signal.
The assay was conducted in 96-well white assay plates. All the reagents, including Tag1-PDL1, Tag2-PD1, Anti-Tag1-PDL1, Anti-Tag2-PD1 were thawed and diluted with PPI Europium Detection buffer to achieve the desired concentration as per the manufacturer's protocol. A 1000 μM stock solution of test inhibitors was prepared in DMSO. The stock solution was diluted in DMSO to prepare 8 concentrations (1000-0.001 μM). These stock solutions were further diluted in PPI Europium detection buffer to prepare 8 working stock solutions (100-0.0001 μM). To the 96-well plate, 2 μL of the test inhibitor working stock solutions were added followed by 4 μL of Tag1-PDL1 (5 nM) and 4 μL of Tag2-PD1 (50 nM). The plate was incubated at room temperature for 15 min. Subsequently, 10 μL of pre-mixed Anti-Tag1-PDL1 and Anti-Tag2-PD1 solution was added. The plate was sealed and incubated at room temperature for 1 h. The HTRF signal was read on Perkin Elmer Envision plate reader using excitation wavelength of 320 nm, emission wavelengths of 620 nm and 665 nm. Results were obtained by calculating the ratio of signal from acceptor at 665 nm to that of signal from donor at 620 nm multiplied by […]. The IC50 values were determined by the Hill equation using GraphPad Prism software.
What is called IC50 is the concentration needed to halve the response being measured. A higher IC50 goes with weaker potency in that assay. `Cc1c(-c2ccc3c(c2)OCCO3)cccc1-c1ccn2c(-c3ccc(CN4C[C@H](O)C[C@H]4C(=O)O)cc3)nnc2c1` [Example 60, (25,4R)-1-(4-(7-(3-(2,3-dihydrobenzo[b][1,4]dioxin-6-yl)-2-methylphenyl)-[1,2,4]triazolo[4,3-a]pyridin-3-yl)benzyl)-4-hydroxypyrrolidine-2-carboxylic acid] yielded an IC50 of 0.1 to 1 µM.

On to `Cc1c(-c2ccc3c(c2)OCCO3)cccc1-c1ccn2c(-c3ccc(CNCCC(=O)O)cc3)nnc2c1` [Example 61, 3-((4-(7-(3-(2,3-dihydrobenzo[b][1,4]dioxin-6-yl)-2-methylphenyl)-[1,2,4]triazolo[4,3-a]pyridin-3-yl)benzyl)amino)propanoic acid], for which the IC50 fell in the range of 0.1 to 1 µM.

For `Cc1c(-c2ccc(CNCCO)cc2)cccc1-c1cccc(-c2ccn3c(-c4ccc(CN5CCC[C@@H]5C(=O)O)cc4)nnc3c2)c1C` [Example 62, (4-(7-(4″-(((2-hydroxyethyl)amino)methyl)-2,2′-dimethyl-[1,1′:3′,1″-terphenyl]-3-yl)-[1,2,4]triazolo[4,3-a]pyridin-3-yl)benzyl)-D-proline], the IC50 is not above 0.01 µM.

`Cc1c(-c2ccn3c(-c4ccc(CN5CCC[C@@H]5C(=O)O)cc4)nnc3c2)cccc1-c1cccc(-c2cnc(CNCCO)cn2)c1C` [Example 63, (4-(7-(3′-(5-(((2-hydroxyethyl)amino)methyl)pyrazin-2-yl)-2,2′-dimethyl-[1,1′-biphenyl]-3-yl)-[1,2,4]triazolo [4,3-α]pyridin-3-yl)benzyl)-D-proline] yielded an IC50 of 0.01 to 0.1 µM.

With `Cc1c(-c2ccc(CNCCO)cc2)cccc1-c1cccc(-c2ccn3c(-c4ccc(CN5CCC[C@H]5C(=O)O)cc4)nnc3c2)c1C` [Example 64, (4-(7-(4″-(((2-hydroxyethyl)amino)methyl)-2,2′-dimethyl-[1,1′:3′,1″-terphenyl]-3-yl)-[1,2,4]triazolo[4,3-α]pyridin-3-yl)benzyl)-L-proline], the IC50 was not above 0.01 µM.

`Cc1c(-c2ccc(CNCCO)cc2)cccc1-c1cccc(-c2ccn3c(-c4ccc(CN5CC[C@@H](C(=O)O)C5)cc4)nnc3c2)c1C` [Example 65, (R)-1-(4-(7-(4″-(((2-hydroxyethyl)amino)methyl)-2,2′-dimethyl-[1,1′:3′,1″-terphenyl]-3-yl)-[1,2,4]triazolo[4,3-α]pyridin-3-yl)benzyl)pyrrolidine-3-carboxylic acid]: the IC50 fell in the range of 0.01 to 0.1 µM.

In turn, `OCCNCc1ccc(-c2cccc(-c3cccc(-c4ccn5c(-c6ccc(CNCCO)cc6)nnc5c4)c3Cl)c2Cl)cc1` [Example 66, 2-(((2′,2″-dichloro-3″-(3-(4-(((2-hydroxyethyl)amino)methyl)phenyl)-[1,2,4]triazolo[4,3-a]pyridin-7-yl)-[1,1′:3′,1″-terphenyl]-4-yl)methyl)amino)ethan-1-ol] showed an IC50 of 0.01 to 0.1 µM.

`O=C(O)[C@H]1CCCN1Cc1ccc(-c2nnc3cc(-c4cccc(-c5cccc(-c6ccc(CNCCO)cc6)c5Cl)c4Cl)ccn23)cc1` [Example 67, (4-(7-(2,2′-dichloro-4″-(((2-hydroxyethyl)amino)methyl)-[1,1′:3′,1″-terphenyl]-3-yl)-[1,2,4]triazolo[4,3-a]pyridin-3-yl)benzyl)-D-proline] gave an IC50 not above 0.01 µM.

For the molecule `Cc1c(NC(=O)c2ccc(CNCCO)cn2)cccc1-c1cccc(-c2ccn3c(-c4ccc(CN5CCC[C@@H]5C(=O)O)cc4)nnc3c2)c1C` [Example 68, (4-(7-(3′-(5-(((2-hydroxyethyl)amino)methyl)picolinamido)-2,2′-dimethyl-[1,1′-biphenyl]-3-yl)-[1,2,4]triazolo[4,3-a]pyridin-3-yl)benzyl)-D-proline], the concentration for half-maximal inhibition (IC50) was not above 0.01 µM.

The molecule `Cc1c(NC(=O)c2ccc(CNCCO)cn2)cccc1-c1cccc(-c2ccn3c(-c4ccc(CN5CCC[C@H]5C(=O)O)cc4)nnc3c2)c1C` [Example 69, (4-(7-(31-(5-(((2-hydroxyethyl)amino)methyl)picolinamido)-2,2′-dimethyl-[1,1′-biphenyl]-3-yl)-[1,2,4]triazolo [4,3-α]pyridin-3-yl)benzyl)-L-proline] gave a 50% inhibitory concentration (IC50) not above 0.01 µM.

In turn, `Cc1c(NC(=O)c2ccc(CNCCO)cn2)cccc1-c1cccc(-c2ccn3c(-c4ccc(CNCCO)cc4)nnc3c2)c1C` [Example 70, 5-(((2-hydroxyethyl)amino)methyl)-N-(3′-(3-(4-(((2-hydroxyethyl)amino)methyl)phenyl)-[1,2,4]triazolo[4,3-a]pyridin-7-yl)-2,2′-dimethyl-[1,1′-biphenyl]-3-yl)picolinamide] registered an IC50 not above 0.01 µM.

`Cc1c(NC(=O)c2ccc(CNC[C@H]3CCC(=O)N3)cn2)cccc1-c1cccc(-c2ccn3c(-c4ccc(CNC[C@H]5CCC(=O)N5)cc4)nnc3c2)c1C` [Example 71, N-(2,2′-dimethyl-31-(3-(4-(((((R)-5-oxopyrrolidin-2-yl)methyl)amino)methyl)phenyl)-[1,2,4]triazolo[4,3-α]pyridin-7-yl)-[1,1′-biphenyl]-3-yl)-5-(((((R)-5-oxopyrrolidin-2-yl)methyl)amino)methyl)picolinamide] registered an IC50 of 0.01 to 0.1 µM.

Molecule `COCCNCc1ccc(-c2nnc3cc(-c4cccc(-c5cccc(NC(=O)c6ccc(CNCCO)cn6)c5C)c4C)ccn23)cc1` [Example 72, 5-(((2-hydroxyethyl)amino)methyl)-N-(3′-(3-(4-(((2-methoxyethyl)amino)methyl)phenyl)-[1,2,4]triazolo[4,3-α]pyridin-7-yl)-2,2′-dimethyl-[1,1′-biphenyl]-3-yl)picolinamide] gave an IC50 not above 0.01 µM.

`Cc1c(-c2ccn3c(-c4ccc(CN5CCC[C@@H]5C(=O)O)cc4)nnc3c2)cccc1-c1cccc(-c2ccn3c(-c4ccc(CN5CCC[C@@H]5C(=O)O)cc4)nnc3c2)c1C` [Example 73, (2′R)-((((2,2′-dimethyl-[1,1′-biphenyl]-3,3′-diyl)bis ([1,2,4]triazolo[4,3-ci]pyridine-7,3-diyl))bis(4,1-phenylene))bis(methylene))di-D-proline] had a 50% inhibitory concentration (IC50) of 0.01 to 0.1 µM.

Take `Cc1c(-c2ccc(CNC[C@@H]3CCC(=O)N3)cc2)cccc1-c1cccc(-c2ccn3c(-c4ccc(CNC[C@@H]5CCC(=O)N5)cc4)nnc3c2)c1C` [Example 74, (S)-5-((((2′,2″-dimethyl-3″-(3-(4-(((((S)-5-oxopyrrolidin-2-yl)methyl)amino)methyl)phenyl)-[1,2,4]triazolo[4,3-a]pyridin-7-yl)-[1,1′:3′,1″-terphenyl]-4-yl)methyl)amino)methyl)pyrrolidin-2-one]: the 50% inhibitory concentration (IC50) was in the range of 0.01 to 0.1 µM.

Molecule `Cc1c(-c2ccc(CNCCO)cc2)cccc1-c1cccc(-c2ccn3c(-c4ccc(CNCCO)cc4)nnc3c2)c1C` [Example 75, 2-((4-(7-(4″-(((2-hydroxyethyl)amino)methyl)-2,2′-dimethyl-[1,1′:3′,1″-terphenyl]-3-yl)-[1,2,4]triazolo[4,3-α]pyridin-3-yl)benzyl)amino)ethan-1-ol] had a half-maximal inhibitory concentration (IC50) of 0.01 to 0.1 µM.

For `Cc1c(-c2ccc(CNC[C@H]3CCC(=O)N3)cc2)cccc1-c1cccc(-c2ccn3c(-c4ccc(CNC[C@H]5CCC(=O)N5)cc4)nnc3c2)c1C` [Example 76, (R)-5-((((2′,2″-dimethyl-3″-(3-(4-(((((R)-5-oxopyrrolidin-2-yl)methyl)amino)methyl)phenyl)-[1,2,4]triazolo[4,3-α]pyridin-7-yl)-[1,1′:3′,1″-terphenyl]-4-yl)methyl)amino)methyl)pyrrolidin-2-one], the IC50 lay in the range of 0.01 to 0.1 µM.

For the origin of these results see patent US20260265248A1, “NOVEL PD-L1 INHIBITORS” (AFFIRMA BIOTECH S. L., priority 2023, published 2026).
